Values of other authors as cited in patent US10933021B2, “Compositions of gallium (III) complexes for oral administration” (Altum Pharmaceuticals Inc., priority 2017, dated 2021).

Tests used:
[1] = tested on: tumor cell lines resistant to gallium nitrate
[2] = pH values below the pKa of 8-hydroxyquinoline (5.01)
[3] = seven patients, oral enteric coated tablets of crystalline GaQ3, 10 mg, 20 mg, 30 mg strengths
[4] = pH 7.4, serum
[5] = tested on: apoptosis induction; conditions: compared to simple gallium salts such as gallium nitrate
[6] = biological target: transferrin (Tf) (Homo sapiens, UniProt P02787); conditions: human serum
Sequence of transferrin (Tf) (P02787 20-698): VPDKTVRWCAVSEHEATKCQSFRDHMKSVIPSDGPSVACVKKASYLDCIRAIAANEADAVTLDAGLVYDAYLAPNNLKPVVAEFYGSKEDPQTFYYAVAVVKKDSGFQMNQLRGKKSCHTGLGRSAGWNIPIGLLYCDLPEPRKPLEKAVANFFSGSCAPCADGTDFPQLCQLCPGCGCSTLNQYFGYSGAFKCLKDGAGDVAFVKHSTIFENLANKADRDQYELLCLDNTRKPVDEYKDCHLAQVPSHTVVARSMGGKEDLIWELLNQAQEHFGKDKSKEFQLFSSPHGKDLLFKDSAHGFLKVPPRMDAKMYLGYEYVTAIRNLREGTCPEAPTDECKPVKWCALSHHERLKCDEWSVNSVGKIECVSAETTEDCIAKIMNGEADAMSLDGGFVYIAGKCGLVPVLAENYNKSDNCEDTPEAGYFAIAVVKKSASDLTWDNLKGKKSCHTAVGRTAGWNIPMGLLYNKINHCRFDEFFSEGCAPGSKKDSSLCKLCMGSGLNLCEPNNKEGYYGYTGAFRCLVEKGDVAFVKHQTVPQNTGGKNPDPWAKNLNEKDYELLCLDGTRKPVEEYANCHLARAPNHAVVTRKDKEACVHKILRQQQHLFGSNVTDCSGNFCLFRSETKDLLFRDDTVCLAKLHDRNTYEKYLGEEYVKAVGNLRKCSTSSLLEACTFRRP

[7] = biological target: albumin (Homo sapiens, UniProt P02768); conditions: human serum
Sequence of albumin (P02768 25-609): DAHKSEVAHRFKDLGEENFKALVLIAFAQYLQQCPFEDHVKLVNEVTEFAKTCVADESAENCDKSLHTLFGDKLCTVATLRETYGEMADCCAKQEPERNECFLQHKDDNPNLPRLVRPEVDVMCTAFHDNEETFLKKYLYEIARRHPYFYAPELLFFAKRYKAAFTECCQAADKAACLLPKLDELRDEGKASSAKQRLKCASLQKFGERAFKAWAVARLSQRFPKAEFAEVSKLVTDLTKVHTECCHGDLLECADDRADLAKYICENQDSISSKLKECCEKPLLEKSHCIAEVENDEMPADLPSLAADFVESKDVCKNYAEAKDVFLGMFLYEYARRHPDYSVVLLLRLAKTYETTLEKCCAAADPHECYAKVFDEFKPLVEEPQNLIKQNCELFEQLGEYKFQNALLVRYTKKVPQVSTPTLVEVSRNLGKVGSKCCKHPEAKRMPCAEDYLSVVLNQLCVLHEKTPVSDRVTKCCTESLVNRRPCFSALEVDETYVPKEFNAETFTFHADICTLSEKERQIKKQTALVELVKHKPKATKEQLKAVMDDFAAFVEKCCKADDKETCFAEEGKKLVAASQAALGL

## [Ga+3].[O-]c1cccc2cccnc12.[O-]c1cccc2cccnc12.[O-]c1cccc2cccnc12 [GaQ3, tris (8-quinolinolato) gallium (III)]
[1]
  activity against tumor cell lines resistant to gallium nitrate: active
[2]
  integrity of complexed structure: disrupted completely
other
  solubility in water: 18-22 ppm
[3]
  tolerability: well tolerated
[4]
  stability in serum: very stable
[5]
  apoptosis induction relative to gallium nitrate: ca. 3 ×
[6]
  binding to transferrin (Tf): strongly
[7]
  binding to albumin: binds very weakly
